Experimental data from patent publication US9499446B2, “Zinc-essential for flora and fauna” (priority 2012, dated 2016).

Key:
Wheat cultivar PBW 550 = assay: Experiment I: field experiments in wheat under different Zn treatments (PAU research farm and farmer's field, Jattpur); type: in vivo; conditions: soil application 62.5 kg ha^−1
Description: Field Experiments in wheat was carried out using the composition of the present invention for two consecutive years in Punjab Agriculture University (PAU) Research Farm and Framer's field (Jattpur) loamy soil. Wheat cultivar PBW 550 seeds were sown during the first week of November. Two Zn chelates at different concentrations at two stages of wheat plant growth were applied through foliar application. In another treatment, Zn was added to the soil as basal dose at 62.5 kg ha^−1 using ZnSO4.7H2O salt. The first application of Zn chelate spray was done at maximum tillering stage and the second application was made at panicle initiation stage. Various parameters like plant height, tillers and 1000-grain weight were noted. Additionally during maturity in the month of April, the wheat grain and straw yield were noted.
The physio-chemical analyses of the soil before the start of the experiment was carried out at the two locations were the experiments were to be carried.
The plant parameters in wheat under different Zn treatments at PAU research farm and farmer's field are shown in Table 3 and Table 4 respectively and grain and straw yields in wheat under different Zn treatments at PAU research farm and farmer's field are shown in Table 5 and Table 6 respectively.

wheat crops = assay: Experiment II: field experiments in wheat, irrigated north-west plain zone of Rajasthan; type: in vivo; conditions: 24 kg ha^−1
Description: Field Experiments in wheat was carried out using the composition of the present invention in the soils of the irrigated north-west plain zone of Rajasthan. The soils of north-west plain zone are deficient in zinc and poor growth or deficiency symptoms appear on the wheat crops. Two foliar sprays were applied. First, during the vegetative growth stage on early appearance of the deficiency symptoms and the second foliar spray during the flag leaf initiation stage of the wheat crop. [table] The soil of the irrigated north-west plain zone of Rajasthan has a pH, of 8.27 and electric conductivity was 0.20 dS^−m. […] The diethylene triamine pentaacetic acid (DTPA) extractable zinc concentration in the soil was low.

[1] = PAU research farm, Rabi 2009-2010
[2] = PAU research farm, Rabi 2010-2011

## O.O.O.O.O.O.O.O=S(=O)([O-])[O-].[Zn+2] [ZnSO4•7H2O]
Wheat cultivar PBW 550; [1]
  1000 grains weight: 38.4 g
  Grain yield: 52.5 q ha^−1
  Grain yield % increase over control: 10.8%
  Plant height (cm): 76.7 cm
  Straw yield: 65.0 q ha^−1
  Straw yield % increase over control: 3.7%
  Tillers per square meter: 293
Wheat cultivar PBW 550; [2]
  1000 grains weight: 38.7 g
  Grain yield: 54.4 q ha^−1
  Grain yield % increase over control: 13.3%
  Plant height (cm): 97.69 cm
  Straw yield: 65.7 q ha^−1
  Straw yield % increase over control: 5.5%
  Tillers per square meter: 377
Wheat cultivar PBW 550; farmer's field, Rabi 2009-2010
  1000 grains weight: 35.1 g
  Grain yield: 46.7 q ha^−1
  Grain yield % increase over control: 28.7%
  Plant height (cm): 76.6 cm
  Straw yield: 55.3 q ha^−1
  Straw yield % increase over control: 9.1%
  Tillers per square meter: 272
Wheat cultivar PBW 550; farmer's field, Rabi 2010-2011
  1000 grains weight: 34.3 g
  Grain yield: 46.0 q ha^−1
  Grain yield % increase over control: 28.5%
  Plant height (cm): 74.7 cm
  Straw yield: 54.7 q ha^−1
  Straw yield % increase over control: 20.8%
  Tillers per square meter: 353

## O=S(=O)([O-])[O-].[Zn+2] [ZnSO4]
Wheat crops
  1000 Grain weight: 39.73 g
  Ear length (cm): 10.18 cm
  No. of tillers m^−1 row length: 122
  Yield (tonne ha^−1) Grain: 4.57 tonne ha^−1
  Yield (tonne ha^−1) Straw: 6.61 tonne ha^−1
  Zn conc: 30.25 mg/kg
